Assay results reported in patent US8735398B2 (Bristol-Myers Squibb Company, priority 2009, dated 2014).
Like-named read-outs stand apart in the source and are kept apart here.

System: HCV 1b genotype
Experiment: HCV replicon assay (HCV-neo replicon cells, wild-type)
Assay type: cell-based, Hepatitis C virus
Details: HCV 1b genotype replicon
Outline: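 Inhibition was tested in replicon-bearing cells, both wild-type HCV-neo and lines with NS5A resistance substitutions, using the O'Boyle et al. 2005 replicon method or luciferase-reporter formats.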

[1] = Hepatitis C virus, class symbol, read-out: EC50 Range against HCV 1b
[2] = Hepatitis C virus, class symbols, read-out: EC50 Range against HCV 1b

SMILES: CC1(C(=O)N2CCC[C@H]2C(=O)Nc2ccc(-c3cnc(-c4ccc(NC(=O)[C@@H]5CCCN5C(=O)C5(C)CCC(=O)N5Cc5ccccc5)cc4)o3)cc2)CCC(=O)N1Cc1ccccc1 (stereo partly drawn) [Example D-23, (2S,2′S)-N,N′-(1,3-oxazole-2,5-diyldi-4,1-phenylene)bis(1-((1-benzyl-2-methyl-5-oxo-2-pyrrolidinyl)carbonyl)-2-pyrrolidinecarboxamide)]
- EC50 [1]: 1000 to 10000 nM

SMILES: O=C(Nc1ccc(-c2ccc(-c3ccc(NC(=O)[C@@H]4CCCN4C(=O)[C@H](O)c4ccccc4)cc3)o2)cc1)[C@@H]1CCCN1C(=O)[C@H](O)c1ccccc1 [JG-57, (2S,2′S)-N,N′-(2,5-furandiyldi-4,1-phenylene)bis(1-((2R)-2-hydroxy-2-phenylacetyl)-2-pyrrolidinecarboxamide)]
- EC50 (class symbol, read-out: EC50 Range against HCV 1b): 100 to 999 nM

SMILES: CC(NC(=O)[C@@H](O)c1ccccc1)C(=O)Nc1ccc(-c2cc(-c3ccc(NC(=O)[C@H](C)NC(=O)[C@@H](O)c4ccccc4)cc3)n[nH]2)cc1 (stereo in doubt) [OL-43, (S)-2-((S)-2-hydroxy-2-phenylacetamido)-N-(4-(5-(4-((R)-2-((S)-2-hydroxy-2-phenylacetamido)propanamido)phenyl)-1H-pyrazol-3-yl)phenyl)propanamide]
- EC50 [1]: 4.57 to 99 nM

SMILES: CC(=O)N1CCC[C@H]1C(=O)Nc1ccc(-c2nc(-c3ccc(NC(=O)[C@@H]4C=CCN4C(=O)[C@H]4CCCO4)cc3)cs2)cc1 [Example D-51, (2S)-N-[4-[2-[4-[[[(2S)-1-acetyl-2-pyrrolidinyl]carbonyl]amino]phenyl]-4-thiazolyl]phenyl]-2,5-dihydro-1-[[(2R)-tetrahydro-2-furanyl]carbonyl]-1H-pyrrole-2-carboxamide]
- EC50 [1]: 1000 to 10000 nM
- EC50 (Hepatitis C virus, read-out: EC50 1b): 3430 nM

SMILES: O=C(Nc1ccc(-c2cnc(-c3ccc(NC(=O)[C@@H]4CCCN4C(=O)c4ccc5c(c4)OCO5)cc3)o2)cc1)[C@@H]1CCCN1C(=O)c1ccc2c(c1)OCO2 [XY-36, (2S,2′S)-N,N′-(1,3-oxazole-2,5-diyldi-4,1-phenylene)bis(1-(1,3-benzodioxol-5-ylcarbonyl)-2-pyrrolidinecarboxamide)]
- EC50 [2]: 100 to 999 nM

SMILES: CC(=O)N1CCC[C@H]1C(=O)Nc1ccc(-c2nc(-c3ccc(NC(=O)[C@@H]4C=CCN4C(=O)Cc4cccs4)cc3)cs2)cc1 [Example D-48, (2S)-N-[4-[2-[4-[[[(2S)-1-acetyl-2-pyrrolidinyl]carbonyl]amino]phenyl]-4-thiazolyl]phenyl]-2,5-dihydro-1-(2-thienylacetyl)-1H-pyrrole-2-carboxamide]
- EC50 [1]: 100 to 999 nM

SMILES: CN(C)[C@@H](C(=O)N1[C@H](C(=O)N2CCC[C@H]2C(=O)Nc2ccc(-c3cnc(-c4ccc(NC(=O)[C@@H]5CCCN5C(=O)[C@@H]5C[C@@H]6C[C@@H]6N5C(=O)[C@@H](c5ccccc5)N(C)C)cc4)o3)cc2)C[C@@H]2C[C@@H]21)c1ccccc1 [Example D-40, (2S,2′S)-N,N′-(1,3-oxazole-2,5-diyldi-4,1-phenylene)bis(1-(((1S,3S,5S)-2-((2R)-2-(dimethylamino)-2-phenylacetyl)-2-azabicyclo[3.1.0]hex-3-yl)carbonyl)-2-pyrrolidinecarboxamide)]
- EC50 [1]: 100 to 999 nM

SMILES: CC(C)(C)O[C@@H]1C[C@@H](C(=O)Nc2ccc(-c3cnc(-c4ccc(NC(=O)[C@@H]5C[C@@H](OC(C)(C)C)CN5C(=O)OCc5ccccc5)cc4)o3)cc2)N(C(=O)OCc2ccccc2)C1 [XY-59, dibenzyl (2S,4R,2′S,4′R)-2,2′-(1,3-oxazole-2,5-diylbis(4,1-phenylenecarbamoyl))bis(4-tert-butoxy-1-pyrrolidinecarboxylate)]
- EC50 [2]: 1000 to 10000 nM

SMILES: CSCC[C@H](NC(=O)Cc1ccccc1)C(=O)Nc1ccc(-c2cnc(-c3ccc(NC(=O)[C@H](CCSC)NC(=O)Cc4ccccc4)cc3)o2)cc1 [JG-13, (2S,2′S)-N,N′-(1,3-oxazole-2,5-diyldi-4,1-phenylene)bis(4-(methylsulfanyl)-2-((phenylacetyl)amino)butanamide)]
- EC50 [1]: 100 to 999 nM

SMILES: O=C(Nc1ccc(-c2cnc(-c3ccc(NC(=O)[C@@H]4C[C@@H](O)CN4C(=O)c4ccccc4)cc3)o2)cc1)[C@@H]1C[C@@H](O)CN1C(=O)c1ccccc1 [XY-56, (2S,4R,2′S,4′R)-N,N′-(1,3-oxazole-2,5-diyldi-4,1-phenylene)bis(1-benzoyl-4-hydroxy-2-pyrrolidinecarboxamide)]
- EC50 [2]: 100 to 999 nM

SMILES: O=C(Nc1ccc(-c2cnc(-c3ccc(NC(=O)[C@@H]4C[C@@H](O)CN4C(=O)[C@H]4CCCO4)cc3)o2)cc1)[C@@H]1C[C@@H](O)CN1C(=O)[C@H]1CCCO1 [XY-50, (2S,4R,2′S,4′R)-N,N′-(1,3-oxazole-2,5-diyldi-4,1-phenylene)bis(4-hydroxy-1-((2R)-tetrahydro-2-furanylcarbonyl)-2-pyrrolidinecarboxamide)]
- EC50 [2]: 1000 to 10000 nM

SMILES: O=C(Nc1ccc(-c2cnc(-c3ccc(NC(=O)[C@@H]4CCCN4C(=O)c4onc5ccccc45)cc3)o2)cc1)[C@@H]1CCCN1C(=O)c1onc2ccccc12 [JG-30, (2S,2′S)-N,N′-(1,3-oxazole-2,5-diyldi-4,1-phenylene)bis(1-(2,1-benzisoxazol-3-ylcarbonyl)-2-pyrrolidinecarboxamide)]
- EC50 [1]: 4.57 to 99 nM

SMILES: CC(C)C(=O)N1CCC[C@H]1C(=O)Nc1ccc(-c2cc(-c3ccc(NC(=O)[C@@H]4CCCN4C(=O)C(C)C)cc3)[nH]n2)cc1 [OL-31, (2S,2′S)-N,N′-(1H-pyrazole-3,5-diyldi-4,1-phenylene)bis(1-isobutyryl-2-pyrrolidinecarboxamide)]
- EC50 [1]: 100 to 999 nM

SMILES: O=C(Nc1ccc(-c2cnc(-c3ccc(NC(=O)[C@@H]4CCCN4C(=O)CN4CCCCC4)cc3)o2)cc1)[C@@H]1CCCN1C(=O)CN1CCCCC1 [XY-41, (2S,2′S)-N,N′-(1,3-oxazole-2,5-diyldi-4,1-phenylene)bis(1-(1-piperidinylacetyl)-2-pyrrolidinecarboxamide)]
- EC50 (class symbols, read-out: EC50 Range against HCV 1b): 1000 to 10000 nM

SMILES: C[C@H](NC(=O)OCc1ccccc1)C(=O)Nc1ccc(-c2nncn2-c2ccc(NC(=O)[C@H](C)NC(=O)OCc3ccccc3)cc2)cc1 [OL-16, [(1S)-1-methyl-2-oxo-2-[[4-[3-[4-[[(2S)-1-oxo-2-[[(phenylmethoxy)carbonyl]amino]propyl]amino]phenyl]-4H-1,2,4-triazol-4-yl]phenyl]amino]ethyl]-carbamic acid, phenylmethyl ester]
- EC50 [1]: 1000 to 10000 nM

SMILES: CC(=O)N[C@@H](C(=O)N1CCCC1C(=O)Nc1ccc(-c2cc(-c3ccc(NC(=O)C4CCCN4C(=O)[C@H](NC(C)=O)c4ccccc4)cc3)[nH]n2)cc1)c1ccccc1 (stereo partly drawn) [OL-42, N,N′-(1H-pyrazole-3,5-diyldi-4,1-phenylene)bis(1-((2R)-2-acetamido-2-phenylacetyl)-2-pyrrolidinecarboxamide)]
- EC50 [1]: < 4.57 nM

SMILES: O=C(Nc1ccc(-c2cnc(-c3ccc(NC(=O)[C@@H]4CCCN4C(=O)Cc4ccccc4)cc3)o2)cc1)[C@@H]1CCCN1C(=O)Cc1ccccc1 [JG-3, (2S,2′S)-N,N′-(1,3-oxazole-2,5-diyldi-4,1-phenylene)bis(1-(phenylacetyl)-2-pyrrolidinecarboxamide)]
- EC50 [1]: < 4.57 nM

SMILES: O=C(Nc1ccc(-c2cnc(-c3ccc(NC(=O)[C@@H]4CCCN4C(=O)C(O)c4nccs4)cc3)o2)cc1)[C@@H]1CCCN1C(=O)C(O)c1nccs1 (stereo partly drawn) [Example D-10, (2S,2′S)-N,N′-(1,3-oxazole-2,5-diyldi-4,1-phenylene)bis(1-(hydroxy(1,3-thiazol-2-yl)acetyl)-2-pyrrolidinecarboxamide)]
- EC50 [1]: 100 to 999 nM
